Laboratory results published in ChEMBL document CHEMBL1121828, “Quantitative structure-selectivity relationships. Comparison of the inhibition of Escherichia coli and bovine liver dihydrofolate reductase by 5-(substituted-benzyl)-2,4-diaminopyrimidines” (J Med Chem, 1981).

Experiments:
[1] = target: T1, Dihydrofolate reductase (Bos taurus) (UniProt P00376)
T1 sequence (whole entry): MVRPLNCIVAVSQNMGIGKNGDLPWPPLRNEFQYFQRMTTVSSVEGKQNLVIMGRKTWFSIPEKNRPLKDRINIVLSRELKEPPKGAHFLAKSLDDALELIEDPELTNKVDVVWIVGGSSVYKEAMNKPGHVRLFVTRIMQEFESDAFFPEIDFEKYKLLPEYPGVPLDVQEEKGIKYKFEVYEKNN
Description: Inhibition of dihydrofolate reductase from bovine liver

[2] = target: T2, Dihydrofolate reductase (Escherichia coli) (UniProt P0ABQ4)
T2 sequence (whole entry): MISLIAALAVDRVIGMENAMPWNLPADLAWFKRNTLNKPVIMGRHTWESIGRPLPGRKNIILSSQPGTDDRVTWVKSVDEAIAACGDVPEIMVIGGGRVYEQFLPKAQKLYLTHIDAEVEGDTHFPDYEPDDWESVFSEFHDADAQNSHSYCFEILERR
Description: Compound is evaluated for the inhibition of dihydrofolate reductase from Escherichia coli

| Compound | Log 1/Ki app [1] | Log 1/Ki app [2] |
| --- | --- | --- |
| Nc1ncc(Cc2cccc(CO)c2)c(N)n1 | 5.2 | – |
| Cc1ccc(Cc2cnc(N)nc2N)cc1 | 4.8 | – |
| CC(=O)Nc1ccc(Cc2cnc(N)nc2N)cc1[N+](=O)[O-] | 5.16 | 6.97 |
| CCCCOc1ccc(Cc2cnc(N)nc2N)cc1 | 5.74 | – |
| Nc1ncc(Cc2cccc(O)c2)c(N)n1 | 4.88 | – |
| COc1ccc(Cc2cnc(N)nc2N)cc1OC | 5.15 | – |
| Nc1ncc(Cc2ccc(OC(F)(F)F)cc2)c(N)n1 | 5.42 | 6.57 |
| Nc1ncc(Cc2cccc(C(F)(F)F)c2)c(N)n1 | 5.53 | – |
| COCCOc1c(OC)cc(Cc2cnc(N)nc2N)cc1OC | 4.88 | – |
| Nc1ccc(Cc2cnc(N)nc2N)cc1 | 4.57 | – |
| Nc1ncc(Cc2cccc(I)c2)c(N)n1 | 6.15 | – |
| COCc1cccc(Cc2cnc(N)nc2N)c1 | 5.49 | – |
| CCCCOCc1cccc(Cc2cnc(N)nc2N)c1 | 5.86 | – |
| CS(=O)(=O)Oc1cccc(Cc2cnc(N)nc2N)c1 | 5.58 | 6.92 |
